Reference: ChEMBL document CHEMBL5678818, “Discovery of potent SOS1 inhibitors that block RAS activation via disruption of the RAS-SOS1 interaction” (Proc Natl Acad Sci U S A, 2019)
The source made the active and inactive calls. No cut-off for these calls is given here.

Legend:
[1] = molecular target: Mitogen-activated protein kinase kinase kinase kinase 1 (Homo sapiens) (UniProt Q92918); test: Inhibition of HPK1 (unknown origin) assessed as residual activity at 100 nM by KINOMEscan analysis relative to control
[2] = test system: Proto-oncogene tyrosine-protein kinase receptor Ret (Homo sapiens), P07949 [V804L]; test: Inhibition of RET V804L mutant (unknown origin) assessed as residual activity at 100 nM by KINOMEscan analysis relative to control
[3] = test system: Epidermal growth factor receptor (Homo sapiens), P00533 [UNDEFINED MUTATION]; test: Inhibition of EGFR L747-S752del/P753S mutant (unknown origin) assessed as residual activity at 100 nM by KINOMEscan analysis relative to control
[4] = molecular target: Protein kinase C theta type (Homo sapiens) (UniProt Q04759); test: Inhibition of PRKCQ (unknown origin) assessed as residual activity at 100 nM by KINOMEscan analysis relative to control
Homo sapiens = species on record: Homo sapiens; test: Inhibition of N-terminal His10-tagged 15N-labeled recombinant human KRAS G12C/C118S mutant (1 to 169 residues) expressed in Escherichia coli/N-terminal His10-tagged wild-type recombinant human SOS1 catalytic domain (564 to 1049 residues) expressed in Escherichia coli protein-protein interaction at 1 mM incubated for 30 mins by 2D-NMR analysis
[5] = molecular target: Dual specificity protein kinase CLK1 (Homo sapiens) (UniProt P49759); test: Inhibition of CLK1 (unknown origin) assessed as residual activity at 100 nM by KINOMEscan analysis relative to control
[6] = molecular target: T1, Ephrin type-B receptor 2 (Homo sapiens) (UniProt P29323); test: Inhibition of EPHB2 (unknown origin) assessed as residual activity at 100 nM by KINOMEscan analysis relative to control
T1 sequence (whole entry): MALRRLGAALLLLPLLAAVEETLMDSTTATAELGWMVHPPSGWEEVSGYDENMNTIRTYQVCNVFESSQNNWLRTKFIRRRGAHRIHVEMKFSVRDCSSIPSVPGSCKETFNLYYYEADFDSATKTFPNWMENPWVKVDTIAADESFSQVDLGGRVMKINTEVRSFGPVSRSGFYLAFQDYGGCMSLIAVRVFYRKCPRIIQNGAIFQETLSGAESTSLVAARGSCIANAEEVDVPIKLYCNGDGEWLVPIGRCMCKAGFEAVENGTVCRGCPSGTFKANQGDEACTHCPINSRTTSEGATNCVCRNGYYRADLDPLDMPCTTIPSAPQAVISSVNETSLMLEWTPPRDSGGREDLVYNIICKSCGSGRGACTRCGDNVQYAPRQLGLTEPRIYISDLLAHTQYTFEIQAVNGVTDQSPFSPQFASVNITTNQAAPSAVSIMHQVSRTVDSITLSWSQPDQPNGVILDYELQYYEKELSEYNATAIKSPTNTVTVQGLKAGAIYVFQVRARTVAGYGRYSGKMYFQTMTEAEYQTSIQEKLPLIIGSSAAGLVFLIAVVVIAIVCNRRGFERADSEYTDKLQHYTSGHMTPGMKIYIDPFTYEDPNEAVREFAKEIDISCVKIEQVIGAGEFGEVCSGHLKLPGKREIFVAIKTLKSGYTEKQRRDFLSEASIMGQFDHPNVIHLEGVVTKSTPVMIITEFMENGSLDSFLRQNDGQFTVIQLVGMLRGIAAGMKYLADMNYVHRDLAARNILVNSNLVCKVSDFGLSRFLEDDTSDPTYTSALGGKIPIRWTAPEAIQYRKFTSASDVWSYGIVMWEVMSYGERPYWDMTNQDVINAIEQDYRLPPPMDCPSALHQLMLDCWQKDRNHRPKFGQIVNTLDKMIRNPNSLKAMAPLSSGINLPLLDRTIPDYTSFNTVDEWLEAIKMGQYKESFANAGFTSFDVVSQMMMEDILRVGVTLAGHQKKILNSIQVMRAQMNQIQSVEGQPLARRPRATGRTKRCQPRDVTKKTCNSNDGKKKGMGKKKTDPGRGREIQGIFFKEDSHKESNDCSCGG

[7] = test system: Epidermal growth factor receptor (Homo sapiens), P00533 [UNDEFINED MUTATION]; test: Inhibition of EGFR S752-I759del mutant (unknown origin) assessed as residual activity at 100 nM by KINOMEscan analysis relative to control
[8] = molecular target: Transient receptor potential cation channel subfamily M member 6 (Homo sapiens) (UniProt Q9BX84); test: Inhibition of TRPM6 (unknown origin) assessed as residual activity at 100 nM by KINOMEscan analysis relative to control
[9] = molecular target: Tyrosine-protein kinase Yes (Homo sapiens) (UniProt P07947); test: Inhibition of YES (unknown origin) assessed as residual activity at 100 nM by KINOMEscan analysis relative to control
[10] = molecular target: T2, Serine/threonine-protein kinase NLK (Homo sapiens) (UniProt Q9UBE8); test: Inhibition of NLK (unknown origin) assessed as residual activity at 100 nM by KINOMEscan analysis relative to control
T2 sequence (whole entry): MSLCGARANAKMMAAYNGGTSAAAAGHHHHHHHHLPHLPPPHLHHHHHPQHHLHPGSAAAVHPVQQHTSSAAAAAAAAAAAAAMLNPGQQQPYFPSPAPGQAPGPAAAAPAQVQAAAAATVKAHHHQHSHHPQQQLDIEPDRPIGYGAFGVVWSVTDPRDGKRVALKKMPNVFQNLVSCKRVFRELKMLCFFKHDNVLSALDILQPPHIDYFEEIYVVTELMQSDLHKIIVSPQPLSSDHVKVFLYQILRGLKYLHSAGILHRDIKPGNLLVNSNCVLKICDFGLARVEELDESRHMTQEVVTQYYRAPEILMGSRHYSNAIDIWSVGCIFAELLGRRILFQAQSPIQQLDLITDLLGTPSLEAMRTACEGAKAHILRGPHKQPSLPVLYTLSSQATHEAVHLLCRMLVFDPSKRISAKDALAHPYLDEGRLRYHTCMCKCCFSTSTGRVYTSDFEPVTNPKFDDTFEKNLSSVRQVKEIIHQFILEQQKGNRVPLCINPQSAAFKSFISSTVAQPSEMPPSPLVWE

[11] = molecular target: Tyrosine-protein kinase JAK1 (Homo sapiens) (UniProt P23458); test: Inhibition of JAK1 JH2 pseudokinase domain (unknown origin) assessed as residual activity at 100 nM by KINOMEscan analysis relative to control
[12] = molecular target: BMP-2-inducible protein kinase (Homo sapiens) (UniProt Q9NSY1); test: Inhibition of BIKE (unknown origin) assessed as residual activity at 100 nM by KINOMEscan analysis relative to control
[13] = molecular target: Calcium/calmodulin-dependent protein kinase type 1D (Homo sapiens) (UniProt Q8IU85); test: Inhibition of CAMK1D (unknown origin) assessed as residual activity at 100 nM by KINOMEscan analysis relative to control
[14] = molecular target: Tyrosine-protein kinase receptor UFO (Homo sapiens) (UniProt P30530); test: Inhibition of AXL (unknown origin) assessed as residual activity at 100 nM by KINOMEscan analysis relative to control
[15] = molecular target: Misshapen-like kinase 1 (Homo sapiens) (UniProt Q8N4C8); test: Inhibition of MINK (unknown origin) assessed as residual activity at 100 nM by KINOMEscan analysis relative to control

Sequence of Epidermal growth factor receptor (Homo sapiens), P00533 [UNDEFINED MUTATION] (P00533 whole entry, looked up, stated change not applied): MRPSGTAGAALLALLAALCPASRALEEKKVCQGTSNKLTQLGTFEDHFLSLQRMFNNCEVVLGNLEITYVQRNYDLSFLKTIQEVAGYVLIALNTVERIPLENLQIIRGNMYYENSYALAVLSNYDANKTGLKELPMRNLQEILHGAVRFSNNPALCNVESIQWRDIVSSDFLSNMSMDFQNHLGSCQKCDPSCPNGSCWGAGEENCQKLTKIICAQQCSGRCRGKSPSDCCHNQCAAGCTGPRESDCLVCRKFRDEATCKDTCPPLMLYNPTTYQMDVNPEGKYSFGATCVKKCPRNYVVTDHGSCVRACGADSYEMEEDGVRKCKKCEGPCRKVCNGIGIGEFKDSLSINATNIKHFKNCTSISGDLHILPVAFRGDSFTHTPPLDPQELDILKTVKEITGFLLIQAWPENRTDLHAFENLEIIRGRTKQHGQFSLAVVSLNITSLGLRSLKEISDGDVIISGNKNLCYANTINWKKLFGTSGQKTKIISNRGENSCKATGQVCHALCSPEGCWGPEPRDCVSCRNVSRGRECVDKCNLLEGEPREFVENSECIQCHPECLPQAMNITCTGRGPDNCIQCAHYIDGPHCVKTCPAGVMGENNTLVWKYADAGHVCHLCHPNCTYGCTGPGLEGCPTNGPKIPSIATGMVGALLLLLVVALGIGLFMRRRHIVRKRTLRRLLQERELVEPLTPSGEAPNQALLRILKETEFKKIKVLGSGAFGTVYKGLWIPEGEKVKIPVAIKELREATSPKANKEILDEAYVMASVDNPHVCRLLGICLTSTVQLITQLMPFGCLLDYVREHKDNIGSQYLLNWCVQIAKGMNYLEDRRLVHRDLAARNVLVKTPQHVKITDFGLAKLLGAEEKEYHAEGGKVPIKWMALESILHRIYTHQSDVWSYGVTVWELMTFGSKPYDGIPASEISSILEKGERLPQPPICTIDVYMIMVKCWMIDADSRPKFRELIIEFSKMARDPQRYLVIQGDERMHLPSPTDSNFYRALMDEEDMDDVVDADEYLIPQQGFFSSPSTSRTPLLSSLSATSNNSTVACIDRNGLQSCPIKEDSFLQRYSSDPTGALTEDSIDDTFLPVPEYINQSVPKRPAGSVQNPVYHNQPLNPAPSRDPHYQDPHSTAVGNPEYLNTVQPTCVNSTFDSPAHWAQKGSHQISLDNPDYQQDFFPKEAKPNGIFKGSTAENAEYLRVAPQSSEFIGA
Sequence of BMP-2-inducible protein kinase (Homo sapiens) (Q9NSY1 whole entry, looked up): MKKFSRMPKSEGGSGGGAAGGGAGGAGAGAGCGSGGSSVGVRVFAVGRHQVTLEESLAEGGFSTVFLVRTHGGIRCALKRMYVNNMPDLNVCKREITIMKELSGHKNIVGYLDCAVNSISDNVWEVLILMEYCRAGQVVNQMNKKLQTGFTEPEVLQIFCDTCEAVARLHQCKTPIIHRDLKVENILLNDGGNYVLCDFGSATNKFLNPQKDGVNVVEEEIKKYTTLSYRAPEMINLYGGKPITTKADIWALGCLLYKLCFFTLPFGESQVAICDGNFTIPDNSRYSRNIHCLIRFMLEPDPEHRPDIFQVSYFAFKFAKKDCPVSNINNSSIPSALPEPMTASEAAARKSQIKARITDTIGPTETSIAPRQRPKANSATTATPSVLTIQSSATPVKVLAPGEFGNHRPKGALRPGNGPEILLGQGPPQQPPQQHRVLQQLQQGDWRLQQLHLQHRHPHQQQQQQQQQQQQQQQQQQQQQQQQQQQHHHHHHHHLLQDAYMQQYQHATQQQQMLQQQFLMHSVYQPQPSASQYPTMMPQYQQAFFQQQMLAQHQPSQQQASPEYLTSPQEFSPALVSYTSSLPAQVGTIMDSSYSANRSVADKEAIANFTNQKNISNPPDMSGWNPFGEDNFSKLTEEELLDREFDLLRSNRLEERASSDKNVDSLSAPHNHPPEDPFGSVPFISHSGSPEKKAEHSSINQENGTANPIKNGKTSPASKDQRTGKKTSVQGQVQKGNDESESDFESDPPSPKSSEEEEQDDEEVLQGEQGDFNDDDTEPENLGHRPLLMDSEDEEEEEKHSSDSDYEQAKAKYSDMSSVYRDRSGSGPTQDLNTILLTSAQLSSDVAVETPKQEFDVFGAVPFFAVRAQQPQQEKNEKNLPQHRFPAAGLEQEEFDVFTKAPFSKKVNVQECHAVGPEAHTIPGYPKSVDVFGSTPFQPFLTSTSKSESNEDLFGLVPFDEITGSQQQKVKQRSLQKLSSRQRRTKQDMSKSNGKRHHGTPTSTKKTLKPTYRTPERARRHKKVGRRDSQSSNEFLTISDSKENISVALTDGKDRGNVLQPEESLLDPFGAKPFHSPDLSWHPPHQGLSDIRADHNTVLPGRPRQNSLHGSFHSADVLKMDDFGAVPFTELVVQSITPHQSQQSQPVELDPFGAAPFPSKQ
Sequence of Mitogen-activated protein kinase kinase kinase kinase 1 (Homo sapiens) (Q92918 whole entry, looked up): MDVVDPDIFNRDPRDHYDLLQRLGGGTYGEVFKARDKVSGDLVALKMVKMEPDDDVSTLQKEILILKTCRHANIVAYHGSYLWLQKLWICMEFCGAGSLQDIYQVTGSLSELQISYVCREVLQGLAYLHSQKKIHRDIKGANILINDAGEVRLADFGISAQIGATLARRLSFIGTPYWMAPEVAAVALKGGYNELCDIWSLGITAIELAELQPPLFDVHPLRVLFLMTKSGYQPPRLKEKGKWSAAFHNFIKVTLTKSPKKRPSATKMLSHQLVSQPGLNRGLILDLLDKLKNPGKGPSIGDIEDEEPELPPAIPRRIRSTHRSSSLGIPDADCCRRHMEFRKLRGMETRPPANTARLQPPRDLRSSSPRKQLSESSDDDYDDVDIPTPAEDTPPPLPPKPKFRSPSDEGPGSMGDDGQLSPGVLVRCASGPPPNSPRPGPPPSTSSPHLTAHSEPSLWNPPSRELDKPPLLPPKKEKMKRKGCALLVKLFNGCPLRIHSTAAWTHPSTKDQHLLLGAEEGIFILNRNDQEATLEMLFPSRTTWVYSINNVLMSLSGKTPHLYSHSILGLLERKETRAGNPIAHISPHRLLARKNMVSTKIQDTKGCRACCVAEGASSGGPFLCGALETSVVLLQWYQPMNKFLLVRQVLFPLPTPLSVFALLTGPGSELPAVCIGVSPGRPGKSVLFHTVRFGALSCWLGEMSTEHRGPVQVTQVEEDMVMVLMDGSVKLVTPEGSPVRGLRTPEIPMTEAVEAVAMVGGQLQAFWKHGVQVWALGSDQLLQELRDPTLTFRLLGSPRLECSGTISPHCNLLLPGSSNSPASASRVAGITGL
Sequence of Tyrosine-protein kinase Yes (Homo sapiens) (P07947 2-543 limits assumed): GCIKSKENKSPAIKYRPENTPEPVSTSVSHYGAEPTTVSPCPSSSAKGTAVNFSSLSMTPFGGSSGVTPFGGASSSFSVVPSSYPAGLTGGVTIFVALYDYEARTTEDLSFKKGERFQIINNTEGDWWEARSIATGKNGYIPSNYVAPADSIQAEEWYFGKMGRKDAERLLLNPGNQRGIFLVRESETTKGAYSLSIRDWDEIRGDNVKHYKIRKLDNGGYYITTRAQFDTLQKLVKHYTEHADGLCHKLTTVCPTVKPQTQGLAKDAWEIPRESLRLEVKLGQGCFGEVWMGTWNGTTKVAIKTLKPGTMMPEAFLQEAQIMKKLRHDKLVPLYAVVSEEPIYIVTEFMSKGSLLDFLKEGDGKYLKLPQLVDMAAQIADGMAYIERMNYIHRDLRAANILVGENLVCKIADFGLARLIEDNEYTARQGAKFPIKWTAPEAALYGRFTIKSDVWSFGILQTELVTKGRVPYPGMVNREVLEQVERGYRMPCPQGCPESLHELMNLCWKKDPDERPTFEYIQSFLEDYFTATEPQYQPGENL
Sequence of Proto-oncogene tyrosine-protein kinase receptor Ret (Homo sapiens), P07949 [V804L] (P07949 whole entry V804L): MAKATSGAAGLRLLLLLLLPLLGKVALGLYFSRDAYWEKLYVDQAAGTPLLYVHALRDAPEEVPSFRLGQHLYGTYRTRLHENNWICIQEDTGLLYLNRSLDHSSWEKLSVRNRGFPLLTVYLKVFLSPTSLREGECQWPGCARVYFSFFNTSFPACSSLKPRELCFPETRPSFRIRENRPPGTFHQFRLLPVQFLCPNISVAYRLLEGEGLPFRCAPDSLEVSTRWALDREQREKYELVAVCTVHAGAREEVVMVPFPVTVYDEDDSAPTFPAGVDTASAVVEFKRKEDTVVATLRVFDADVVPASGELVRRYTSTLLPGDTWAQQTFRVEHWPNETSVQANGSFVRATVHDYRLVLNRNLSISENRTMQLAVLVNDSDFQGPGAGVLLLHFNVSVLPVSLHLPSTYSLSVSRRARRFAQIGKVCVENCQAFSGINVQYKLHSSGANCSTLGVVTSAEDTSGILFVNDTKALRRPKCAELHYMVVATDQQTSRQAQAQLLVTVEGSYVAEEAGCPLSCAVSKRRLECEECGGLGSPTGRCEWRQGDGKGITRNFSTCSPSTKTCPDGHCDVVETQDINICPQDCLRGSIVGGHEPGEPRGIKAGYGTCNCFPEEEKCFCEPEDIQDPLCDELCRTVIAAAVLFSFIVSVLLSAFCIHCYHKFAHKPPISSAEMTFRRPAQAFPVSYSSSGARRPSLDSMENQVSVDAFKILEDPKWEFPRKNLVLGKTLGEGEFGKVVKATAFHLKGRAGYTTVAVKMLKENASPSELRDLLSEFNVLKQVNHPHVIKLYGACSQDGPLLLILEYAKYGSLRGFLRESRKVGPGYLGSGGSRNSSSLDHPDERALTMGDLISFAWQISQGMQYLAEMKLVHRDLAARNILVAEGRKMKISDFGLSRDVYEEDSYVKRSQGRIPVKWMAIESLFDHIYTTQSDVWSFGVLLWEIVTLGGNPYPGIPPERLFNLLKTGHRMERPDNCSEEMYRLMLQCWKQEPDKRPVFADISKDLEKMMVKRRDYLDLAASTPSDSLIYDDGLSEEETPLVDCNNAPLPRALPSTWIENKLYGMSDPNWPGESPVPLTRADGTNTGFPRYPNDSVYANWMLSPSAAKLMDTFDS

COc1cc2ncnc(N[C@H](C)c3cccc4ccccc34)c2cc1OC
Activity [1]: 81% | Activity [2]: 99% | Activity [3]: 90% | Activity [4]: 100% | Activity (Homo sapiens): Active | Activity [5]: 91% | Activity [6]: 85% | Activity [7]: 93% | Activity [8]: 84% | Activity [9]: 100% | Activity [10]: 82% | Activity [11]: 100% | Activity [12]: 93% | Activity [13]: 88% | Activity [14]: 86% | Activity [15]: 77%
